Assay [1] relates to FAAH in small unilamellar vesicles; CXCR4 receptor; GABAB receptor in CHO cell membranes. Kind of assay: BSI label-free free-solution binding assays on membrane proteins (negative controls). To be noted: negative control compound, even the highest concentrations. From the text:
Membrane-associated proteins and their interactions are of paramount interest in the design of clinical therapeutics, accounting for almost 70% of existing drug candidate targets (Krummel and Davis (2002) Current Opinion in Immunology 14: 66-74; Overington et al. (2006) Nature Reviews Drug Discovery 5: 993-996). To date, it has been difficult to perform direct binding assays on cellular membranes except by down-stream signal transduction or the use of isotope labeling methods. BSI facilitated label-free, free solution binding assays on proteoliposomes (Bracey et al. (2002) Science 298: 1793-1796; Jass et al. (2000) Biophysical Journal 79: 3153-3163) from full-length, functional membrane proteins, from both natural and recombinant sources (Kussrow et al. (2010) Chembiochem DOI: 10.1002/cbic.201000671). […]

Assay [2] has as its target lectin Concanavalin A (ConA) (Canavalia ensiformis, UniProt P02866). Particulars: non-binding sugar used as control, free-solution BSI with ConA; cited from earlier work.

With `C[C@H](N)C(=O)O` [L-alanine], the BSI signal entry in assay [1] is listed as “Little or no BSI signal”. On the same count and under the same terms, then `CC(C)CCC[C@@H](C)[C@H]1CC[C@H]2[C@@H]3CC=C4C[C@@H](O)CC[C@]4(C)[C@H]3CC[C@]12C` [cholesterol], with “Little or no BSI signal”. With `O=C[C@H](O)[C@@H](O)[C@@H](O)[C@H](O)CO` [galactose], the BSI binding signal entry in assay [2] was “no binding signal”.
